Test results from patent US7868031B2, “Propionamide compounds as antiinflammatory agents” (Roche Palo Alto LLC, priority 2005, dated 2011).

Target: T1, Human recombinant purified glucocorticoid receptor (Homo sapiens, UniProt P04150)
T1 sequence (P04150 1-777): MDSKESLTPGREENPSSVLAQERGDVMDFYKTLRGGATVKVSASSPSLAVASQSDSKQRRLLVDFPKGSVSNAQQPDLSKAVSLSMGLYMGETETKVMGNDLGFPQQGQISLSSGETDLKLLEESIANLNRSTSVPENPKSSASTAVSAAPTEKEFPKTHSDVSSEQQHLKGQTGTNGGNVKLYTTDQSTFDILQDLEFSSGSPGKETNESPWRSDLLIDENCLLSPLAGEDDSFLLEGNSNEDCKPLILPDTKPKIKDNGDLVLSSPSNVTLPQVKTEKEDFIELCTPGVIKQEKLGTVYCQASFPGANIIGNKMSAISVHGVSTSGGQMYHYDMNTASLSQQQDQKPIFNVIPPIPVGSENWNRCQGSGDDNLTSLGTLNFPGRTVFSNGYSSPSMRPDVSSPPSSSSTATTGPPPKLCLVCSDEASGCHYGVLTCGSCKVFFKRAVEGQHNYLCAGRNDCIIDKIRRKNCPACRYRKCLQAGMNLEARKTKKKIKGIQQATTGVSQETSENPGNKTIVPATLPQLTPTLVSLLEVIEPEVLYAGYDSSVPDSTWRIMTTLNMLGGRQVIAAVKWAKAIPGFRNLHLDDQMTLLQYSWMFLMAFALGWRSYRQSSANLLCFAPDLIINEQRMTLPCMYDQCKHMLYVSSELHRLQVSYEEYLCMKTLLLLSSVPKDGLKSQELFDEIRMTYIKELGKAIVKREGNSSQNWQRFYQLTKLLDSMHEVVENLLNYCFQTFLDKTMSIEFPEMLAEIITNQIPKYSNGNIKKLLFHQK
Test: Glucocorticoid receptor competitive binding assay (3H-dexamethasone)
Conditions: competition with 2 nM 3H-dexamethasone; GR at 1 nM; 4° C. overnight; read-out: Binding Affinity Ki
Protocol: The affinity of glucocorticoid receptor antagonists for the glucocorticoid receptor was determined in competitive binding assays by the ability of the antagonist to compete with tritiated dexamethasone. All assay steps were performed on ice in 96-well plates. Binding buffer contained 10 mM potassium phosphate pH 7.4, 20 mM Na2Mo4, 100 μM EDTA, 2% DMSO, and 5 mM DTT. Human recombinant purified glucocorticoid receptor was used at 1 nM. Compounds tested had up to 2% DMSO final concentration. Non-specific binding condition was 1 μM dexamethasone. The radioligand used for the competition assay was 2 nM ^3H-dexamethasone (83 Ci/mmol stock solution). Buffer, compounds or vehicles, GR, and radioligand were incubated at 4° C. overnight. Unifilter GF/B 96-well filter plates were treated with 0.5% PEI after incubation. Samples were transferred to filter plates by a cell harvester.
Filter plates were washed five times with 50 mM Tris pH 7.5 and 5 mM EDTA wash buffer. Samples were dried at 65° C. for about 1 hr. Scintillation fluid was added to filter plates at 50 μL/well and ^3H cpm were measured on a TopCount scintillation counter.

Ki [nM]	Structure (SMILES)
555	CCOC(=O)C(O)c1ccc(NC(=O)C(O)(CC2(c3ccccc3C(F)(F)F)CCC2)C(F)(F)F)cc1 (stereo not shown) [Example 4, Hydroxy-(4-{3,3,3-trifluoro-2-hydroxy-2-[1-(2-trifluoromethyl-phenyl)-cyclobutylmethyl]-propionylamino}-phenyl)-acetic acid ethyl ester]
161	O=C(Nc1ccc(-c2ncco2)cc1)C(O)(CC1(c2ccccc2C(F)(F)F)CCC1)C(F)(F)F (stereo not shown) [Example 1, 3,3,3-Trifluoro-2-hydroxy-N-(4-oxazol-2-yl-phenyl)-2-[1-(2-trifluoromethyl-phenyl)-cyclobutylmethyl]-propionamide]
13.5	O=C(Nc1cccc(-c2cnco2)c1)C(O)(CC1(c2ccccc2C(F)(F)F)CCC1)C(F)(F)F (stereo not shown) [Example 2, 3,3,3-Trifluoro-2-hydroxy-N-(3-oxazol-5-yl-phenyl)-2-[1-(2-trifluoromethyl-phenyl)-cyclobutylmethyl]-propionamide]
25.2	Cc1noc(-c2ccc(NC(=O)C(O)(CC3(c4ccccc4C(F)(F)F)CCC3)C(F)(F)F)cc2)n1 (stereo not shown) [Example 3, 3,3,3-Trifluoro-2-hydroxy-N-[4-(3-methyl-[1,2,4]oxadiazol-5-yl-)-phenyl]-2-[1-(2-trifluoromethyl-phenyl)-cyclobutylmethyl]-propionamide]
